Tests used:
[1] = test system: AAD-13 (v1) transformed T1 Arabidopsis; test: Postemergence herbicide response of AAD-13 (v1) T1 Arabidopsis; assay type: in vivo, Arabidopsis thaliana; conditions: 14 DAT
Procedure: Seven days after planting (DAP) and again 11 DAP, T1 plants (cotyledon and 2-4-lf stage, respectively) were sprayed with a 0.2% solution of Liberty herbicide (200 g ai/L glufosinate, Bayer Crop Sciences, Kansas City, Mo.) at a spray volume of 10 ml/tray (703 L/ha) using a DeVilbiss compressed air spray tip to deliver an effective rate of 280 g ai/ha glufosinate per application. Survivors (plants actively growing) were identified 4-7 days after the final spraying and transplanted individually into 3-inch pots prepared with potting media (Metro Mix 360). Transplanted plants were covered with humidity domes for 3-4 days and placed in a 22° C. growth chamber as before or moved to directly to the greenhouse. Domes were subsequently removed and plants reared in the greenhouse (22±5° C., 50±30% RH, 14 h light:10 dark, minimum 500 μE/m^2s^1 natural+supplemental light) at least 1 day prior to testing for the ability of AAD-13 (v1) to provide phenoxy auxin herbicide resistance.
T1 plants were then randomly assigned to various rates of 2,4-D. For Arabidopsis, 50 g ae/ha 2,4-D is an effective dose to distinguish sensitive plants from ones with meaningful levels of resistance. Elevated rates were also applied to determine relative levels of resistance (280, 560, 1120, or 2240 g ae/ha). Tables 11 and 12 show comparisons drawn to an aryloxyalkanoate herbicide resistance gene (AAD-12 (v1)) previously described in PCT/US2006/042133.
All auxin herbicide applications were made using the DeVilbiss sprayer as described above to apply 703 L/ha spray volume (0.4 ml solution/3-inch pot) or applied by track sprayer in a 187 L/ha spray volume. 2,4-D used was either technical grade (Sigma, St. Louis, Mo.) dissolved in DMSO and diluted in water (<1% DMSO final concentration) or the commercial dimethylamine salt formulation (456 g ae/L, NuFarm, St Joseph, Mo.). Dichlorprop used was commercial grade formulated as potassium salt of R-dichlorprop (600 g ai/L, AH Marks). As herbicide rates increased beyond 800 g ae/ha, the pH of the spray solution became exceedingly acidic, burning the leaves of young, tender Arabidopsis plants and complicating evaluation of the primary effects of the herbicides.
The first Arabidopsis transformations were conducted using AAD-13 (v1) (plant optimized gene). T1 transformants were first selected from the background of untransformed seed using a glufosinate selection scheme. Over 160,000 T1 seed were screened and 238 glufosinate resistant plants were identified (PAT gene), equating to a transformation/selection frequency of 0.15% which lies in the normal range of selection frequency of constructs where PAT+Liberty are used for selection. T1 plants selected above were subsequently transplanted to individual pots and sprayed with various rates of commercial aryloxyalkanoate herbicides. Table 11 compares the response of AAD-13 (v1) and control genes to impart 2,4-D resistance to Arabidopsis T1 transformants. Response is presented in terms of % visual injury 2 WAT. […] An arithmetic mean and standard deviation is presented for each treatment. The range in individual response is also indicated in the last column for each rate and transformation. PAT/Cry1F-transformed Arabidopsis served as an auxin-sensitive transformed control. The AAD-13 (v1) gene imparted herbicide resistance to individual T1 Arabidopsis plants. Within a given treatment, the level of plant response varied greatly and can be attributed to the fact each plant represents an independent transformation event. Of important note, at each 2,4-D rate tested, there were individuals that were unaffected while some were severely affected. […] At high rates the spray solution becomes highly acidic unless buffered therefore some of the injury may be attributed to the acidity of the spray solution. Arabidopsis grown mostly in the growth chamber has a very thin cuticle and severe burning effects can complicate testing at these elevated rates. […]

AAD-13 (v2) = molecular target: T1, AAD-13 (v2) (Sphingobium herbicidovorans, UniProt Q700X4); assay type: biochemical; conditions: substrate 1 mM; rate as percentage of 2,4-D rate in same sample set; propionate rates divided by two
T1 construct: His tag (C); made in house; host or cells: E. coli BL-21, pET-26b(+)
Excerpt: In order to test a broad range of substrates, the production of succinate from the breakdown of α-ketoglutarate was detected spectrophotometricly using a protocol based on the method of Luo et. al. (2006) (Anal. Biochem. 353: 69-74). As depicted in FIG. 3, the concomitant breakdown of α-ketoglutarate and the substrate of interest via AAD-13, results in the production of succinate. Succinate is further modified to succinyl-CoA by succinyl-CoA synthetase which consumes ATP and produces ADP. ADP is then consumed by the commonly employed pyruvate kinase/lactate dehydrogenase enzymatic coupling system (Sigma P0294). The resulting conversion of NADH to NAD is monitored spectrophotometrically at 340 nm.
Identification of AAD-13 (v2) substrates in vitro was based on enzymatic activity detected during continuous spectrophotometric monitoring of a 0.2 mL reaction volume in a 96 well microtiter plate. Reaction conditions were as follows: 100 mM MOPS pH 7.0, 0.4 mM NADH, 0.4 mM ATP, 0.4 mM CoA, 1 mM PEP, 10 mM MgCl2, 0.1 mM […] (solubilized in HCl), and 0.1 mM ascorbate, 1 mM α-ketoglutarate and sufficient AAD-13 (v2) to produce an observable rate in the presence of 2,4-D. Coupling enzymes (SCS/PK/LDH) were adjusted by batch to ensure adequate coupling, and potential substrates were generally assayed at 1 mM. Alterations in substrate concentrations were made as needed to adjust for solubility. Reactions were initiated by either the addition of AAD-13 (v2) or potential substrate. The rate of substrate independent conversion of α-ketoglutarate to succinate by AAD was monitored under the above assay conditions and subtracted from the observed reaction rates. […] Additionally, propionate compounds were checked for pyruvate contamination by spectrophotometrically monitoring the consumption of NADH in the presence of compound and PK/LDH.
Reaction rates are reported as a percentage of the 2,4-D reaction rate obtained in the same sample set. […] It should be noted that faster rates can be more difficult to accurately compare depending on the percentage of available substrate consumed. […] As a result, highly efficient substrates will be properly grouped when compared to low efficiency substrates. Within the grouping of highly efficient substrates however, compounds may not be quantitatively separated by a screen using single rates of substrate and AAD.

T1 sequence (Q700X4 other isoform, or with tags, fused parts or gaps): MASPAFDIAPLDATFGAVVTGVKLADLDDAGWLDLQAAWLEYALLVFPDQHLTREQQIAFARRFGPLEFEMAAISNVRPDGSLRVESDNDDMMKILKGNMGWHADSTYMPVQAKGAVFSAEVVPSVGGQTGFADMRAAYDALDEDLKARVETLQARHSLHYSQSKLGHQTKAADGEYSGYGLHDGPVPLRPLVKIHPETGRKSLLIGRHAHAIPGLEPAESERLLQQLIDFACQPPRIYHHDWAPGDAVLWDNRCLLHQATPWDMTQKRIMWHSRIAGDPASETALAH

CNC.O=C(O)COc1ccc(Cl)cc1Cl [2,4-D DMA]
% Injury 20-40% (individuals) ([1]; 280 g ae/ha postemergence): 4
% Injury <20% (individuals) ([1]; 280 g ae/ha postemergence): 12
% Injury >40% (individuals) ([1]; 280 g ae/ha postemergence): 4
% Injury Ave ([1]; 280 g ae/ha postemergence): 21%
% Injury 20-40% (individuals) ([1]; 560 g ae/ha postemergence): 2
% Injury <20% (individuals) ([1]; 560 g ae/ha postemergence): 17
% Injury >40% (individuals) ([1]; 560 g ae/ha postemergence): 0
% Injury Ave ([1]; 560 g ae/ha postemergence): 2%
% Injury 20-40% (individuals) ([1]; 1120 g ae/ha postemergence): 0
% Injury <20% (individuals) ([1]; 1120 g ae/ha postemergence): 20
% Injury >40% (individuals) ([1]; 1120 g ae/ha postemergence): 0
% Injury Ave ([1]; 1120 g ae/ha postemergence): 2%
% Injury 20-40% (individuals) ([1]; 2240 g ae/ha postemergence): 3
% Injury <20% (individuals) ([1]; 2240 g ae/ha postemergence): 14
% Injury >40% (individuals) ([1]; 2240 g ae/ha postemergence): 3
% Injury Ave ([1]; 2240 g ae/ha postemergence): 15%

C[C@@H](Oc1ccc(Cl)cc1Cl)C(=O)O [R-dichloroprop, R-dichlorprop]
% Injury 20-40% (individuals) ([1]; 800 g ae/ha postemergence): 0
% Injury <20% (individuals) ([1]; 800 g ae/ha postemergence): 0
% Injury >40% (individuals) ([1]; 800 g ae/ha postemergence): 20
% Injury Ave ([1]; 800 g ae/ha postemergence): 100%
% of 24D activity (AAD-13 (v2)): 19%

Nc1c(Cl)c(F)nc(OCC(=O)O)c1Cl [fluoroxypyr]
% of 24D activity (AAD-13 (v2)): 67%

O=C(O)COc1nc(Cl)c(Cl)cc1Cl [triclopyr]
% of 24D activity (AAD-13 (v2)): 6%

From patent US9062284B2, “Uses and detection of herbicide resistance genes for resistance to aryloxyalkanoate herbicides” (Dow ArgoSciences LLC, priority 2007, dated 2015)
